Holding throughout (test): Antifungal activities, MIC/MFC
Common to all, as to type: cell-based

The subject of one assay is C. glabrata. As to conditions: Table 2, 2nd value in brackets, C. glabrata, read-out: minimum inhibitory concentration (MIC). How it is done: (§1) A similar sequence of reactions was carried out using lysine dicholamide in place of cholic acid afforded VJ-1147 of Table 2. To assess the antifungal properties of the diwalled VJ-1138 (Table 2) and 2a of Table 3, their in vitro activities were examined against four clinically relevant microbes, i.e., C. albicans, C. glabrata, C. neoformans, and C. gatti (Table 4).
(§2) Minimum inhibitory concentrations (MIC) and minimum fungicidal concentrations (MFC) are the lowest concentrations that are required for completely inhibiting growth, and killing at least 99% of the fungi, respectively.
(§3) The above molecules were tested for antifungal activity. Minimum inhibitory concentrations (MIC) and minimum fungicidal concentrations (MFC) are the lowest concentrations that are required for completely inhibiting growth, and killing at least 99% of the fungi, respectively. As is apparent from Table 4 below, there is a general trend; i.e., increased antifungal activity is observed as the length of the hydrocarbon chain that separates the facial amphiphile from the Amphotericin B moiety is decreased.

For another assay, the system named is C. gatti. As to conditions: Table 2, 4th value in brackets, C. gatti; read-out: minimum inhibitory concentration (MIC). How it is done: as §1, §2, §3
Another assay deals with C. albicans. The conditions noted are these: Table 2, 1st value in brackets, C. albicans, read-out: minimum inhibitory concentration (MIC). How it is done:
as §1, §2, §3

For a further assay, the system named is C. neoformans. As to conditions: Table 2, 3rd value in brackets, C. neoformans, read-out: minimum inhibitory concentration (MIC). How it is done:
as §1, §2, §3

Each structure is given as a SMILES string. Converted amounts (≈) assume the structure as drawn. Read-outs that look alike come from different tables or passages of the source.

Take `CC1OC(O[C@H]2/C=C/C=C/C=C/C=C/C=C/C=C/C=C/[C@H](C)[C@@H](O)[C@@H](C)[C@H](C)OC(=O)C[C@H](O)C[C@H](O)CC[C@@H](O)[C@H](O)C[C@H](O)C[C@]3(O)C[C@H](O)[C@@H](C(=O)NCCCCCCCC(=O)N(CCCCNC(=O)CC[C@@H](C)C4CCC5C6C(OC(=O)NCCCCN)CC7CC(OC(=O)NCCCCN)CCC7(C)C6CC(OC(=O)NCCCCN)C54C)CCCNC(=O)CC[C@@H](C)C4CCC5C6C(OC(=O)NCCCCN)CC7CC(OC(=O)NCCCCN)CCC7(C)C6CC(OC(=O)NCCCCN)C54C)[C@H](C2)O3)C(O)C(N)C1O` (stereo partly drawn) [VJ-1147]: the MIC in the assay on C. glabrata came out at 16 µM (≈ 42.5 µg/mL); in the assay with C. gatti, 8 µM (≈ 21.3 µg/mL); in the assay on C. albicans, 8 µM (≈ 21.3 µg/mL); with C. neoformans it was 8 µM (≈ 21.3 µg/mL).

In the case of `CC1OC(O[C@H]2/C=C/C=C/C=C/C=C/C=C/C=C/C=C/[C@H](C)[C@@H](O)[C@@H](C)[C@H](C)OC(=O)C[C@H](O)C[C@H](O)CC[C@@H](O)[C@H](O)C[C@H](O)C[C@]3(O)C[C@H](O)[C@@H](C(=O)NCCCCNC(=O)C(CCCCNC(=O)CC[C@@H](C)C4CCC5C6C(O)CC7CC(OC(=O)NCC(O)C(O)C(O)C(O)CO)CCC7(C)C6CC(O)C54C)NC(=O)CC[C@@H](C)C4CCC5C6C(O)CC7CC(OC(=O)NCC(O)C(O)C(O)C(O)CO)CCC7(C)C6CC(O)C54C)[C@H](C2)O3)C(O)C(N)C1O` (stereo partly drawn) [YM-13], the MIC with C. glabrata was determined as 8 µM (≈ 18.5 µg/mL); in the assay on C. gatti it was 4 µM (≈ 9.27 µg/mL); in the assay on C. albicans it was 8 µM (≈ 18.5 µg/mL); in the assay on C. neoformans it was 2 µM (≈ 4.64 µg/mL).

With `CC1OC(O[C@H]2/C=C/C=C/C=C/C=C/C=C/C=C/C=C/[C@H](C)[C@@H](O)[C@@H](C)[C@H](C)OC(=O)C[C@H](O)C[C@H](O)CC[C@@H](O)[C@H](O)C[C@H](O)C[C@]3(O)C[C@H](O)[C@@H](C(=O)NCCCCNC(=O)C(CCCCNC(=O)CC[C@@H](C)C4CCC5C6C(O)CC7CC(O)CCC7(C)C6CC(O)C54C)NC(=O)CC[C@@H](C)C4CCC5C6C(O)CC7CC(O)CCC7(C)C6CC(O)C54C)[C@H](C2)O3)C(O)C(N)C1O` (stereo partly drawn) [YM-15], the MIC in the assay on C. glabrata (Nakaseomyces glabratus) was more than 16 µM; in the assay with C. gatti, 4 µM (≈ 7.61 µg/mL); in the assay with C. albicans (Candida albicans) it was more than 16 µM; with C. neoformans (Cryptococcus neoformans), more than 16 µM.

Turning to `CC1OC(O[C@H]2/C=C/C=C/C=C/C=C/C=C/C=C/C=C/[C@H](C)[C@@H](O)[C@@H](C)[C@H](C)OC(=O)C[C@H](O)C[C@H](O)CC[C@@H](O)[C@H](O)C[C@H](O)C[C@]3(O)C[C@H](O)[C@@H](C(=O)NCCCCNC(=O)C(CCCCNC(=O)CC[C@@H](C)C4CCC5C6C(O)CC7CC(OC(=O)NCCCCN)CCC7(C)C6CC(O)C54C)NC(=O)CC[C@@H](C)C4CCC5C6C(O)CC7CC(OC(=O)NCCCCN)CCC7(C)C6CC(O)C54C)[C@H](C2)O3)C(O)C(N)C1O` (stereo partly drawn) [YM-18], the MIC in the assay on C. glabrata came to 16 µM (≈ 34.1 µg/mL); with C. gatti, 2 µM (≈ 4.26 µg/mL); in the assay with C. albicans, 2 µM (≈ 4.26 µg/mL); in the assay with C. neoformans it was 2 µM (≈ 4.26 µg/mL).

Turning to `CC1OC(O[C@H]2/C=C/C=C/C=C/C=C/C=C/C=C/C=C/[C@H](C)[C@@H](O)[C@@H](C)[C@H](C)OC(=O)C[C@H](O)C[C@H](O)CC[C@@H](O)[C@H](O)C[C@H](O)C[C@]3(O)C[C@H](O)[C@@H](C(=O)NCCCCNC(=O)C(CCCCNC(=O)CC[C@@H](C)C4CCC5C6C(O)CC7CC(OC(=O)NCCN(C)C)CCC7(C)C6CC(O)C54C)NC(=O)CC[C@@H](C)C4CCC5C6C(O)CC7CC(OC(=O)NCCN(C)C)CCC7(C)C6CC(O)C54C)[C@H](C2)O3)C(O)C(N)C1O` (stereo partly drawn) [YM-19], the MIC was 32 µM (≈ 68.2 µg/mL) with C. glabrata, 2 µM (≈ 4.26 µg/mL) in the assay with C. gatti, 4 µM (≈ 8.53 µg/mL) in the assay on C. albicans and 2 µM (≈ 4.26 µg/mL) in the assay with C. neoformans.

Regarding `CC1OC(O[C@H]2/C=C/C=C/C=C/C=C/C=C/C=C/C=C/[C@H](C)[C@@H](O)[C@@H](C)[C@H](C)OC(=O)C[C@H](O)C[C@H](O)CC[C@@H](O)[C@H](O)C[C@H](O)C[C@]3(O)C[C@H](O)[C@@H](C(=O)NCCOCCOCCC(=O)N(CCCCNC(=O)CC[C@@H](C)C4CCC5C6C(O)CC7CC(O)CCC7(C)C6CC(O)C54C)CCCNC(=O)CC[C@@H](C)C4CCC5C6C(O)CC7CC(O)CCC7(C)C6CC(O)C54C)[C@H](C2)O3)C(O)C(N)C1O` (stereo partly drawn) [YM-42], the MIC in the assay with C. glabrata (Nakaseomyces glabratus), in the assay on C. gatti, in the assay on C. albicans (Candida albicans) and in the assay on C. neoformans (Cryptococcus neoformans) was more than 16 µM each time.

The record behind these values is patent US10322187B2, “Reduced toxicity molecular conjugates of anti-fungal agents” (Lehigh University, priority 2015, dated 2019).
